Experimental data: patent US11365186B2, “Substituted benzimidazoles, their preparation and their use as pharmaceuticals” (Epigenetix, Inc., priority 2015, dated 2022)

Test system: human C-Myc transcription in MV-4-11 cells
Assay: Transcription of human C-Myc in human leukemic MV-4-11 cells (QuantiGene 2.0)
Format: cell-based
Conditions: inhibition of C-Myc mRNA transcription, 4 hours treatment, read-out: IC50 MV-4-11 Cell
Method: b) Transcription of Human C-Myc in Human Leukemic MV-4-11 Cells:
The effect of compounds on transcription of human C-Myc gene is monitored in human B-myelomonocytic leukemia cell line MV-4-11 (from American Type Culture Collection (ATCC), Manassas, Va., USA) using QuantiGene 2.0 assay kit (Affymetrix, Santa Clara, Calif., USA).
Typically, 8,000 MV-4-11 cells are plated in sterile 96-well plates (Costar #3598 from Fisher Scientific Canada, Ottawa, Ontario, Canada) in Iscove's medium supplemented with 10% fetal bovine serum, glutamine (2 mM), and penicillin (100 I.U.) and streptomycin (100 μg/mL) (all from Wisent Inc., St. Bruno, Quebec, Canada). Compounds are dissolved in DMSO at 30 mM. A series of 1:3 dilutions are first made in DMSO, and further […] dilutions are made in serum-containing cell culture media. The final concentration of DMSO is 0.1% in cell culture media. After cells are treated with various concentrations of test compound for 4 hours, cells are lysed using Quantigene 2.0 sample processing kit (#QS0100). C-Myc mRNA is detected using a QuantiGene 2.0 assay kit (#QS0009) with gene-specific probe to human C-Myc (#SA-50182) following the manufacturer's recommendations. Luminescence signals are read on Flexstation II microplate reader (Molecular Devices, Sunnyvale, Calif., USA).

COC1CC(c2nc3ccc(-c4cc(C)c(=O)n(C)c4)cc3n2CCOCC(F)(F)F)C1 (stereo not shown) [Compound 63, 5-[2-(3-methoxycyclobutyl)-1-(2-(2,2,2-trifluoroethoxy)ethyl)-1H-benzo[d]imidazol-6-yl]-1,3-dimethylpyridin-2(1H)-one]
IC50: 0.017 µM
